Results as given in patent US10160762B2, “6-alkyl dihydropyrazolopyrimidinone compounds as PDE2 inhibitors” (Merck Sharp & Dohme Corp., priority 2015, dated 2018).
Where two headings read alike, the source gives them in different places.

Molecular target: T1, Rhesus PDE2A3 (Macaca mulatta, UniProt B3VTJ2)
T1 construct: made in house; host or cells: AD293 cells, transient transfection; supernatant of sonicated lysate
T1 sequence (B3VTJ2 1-941): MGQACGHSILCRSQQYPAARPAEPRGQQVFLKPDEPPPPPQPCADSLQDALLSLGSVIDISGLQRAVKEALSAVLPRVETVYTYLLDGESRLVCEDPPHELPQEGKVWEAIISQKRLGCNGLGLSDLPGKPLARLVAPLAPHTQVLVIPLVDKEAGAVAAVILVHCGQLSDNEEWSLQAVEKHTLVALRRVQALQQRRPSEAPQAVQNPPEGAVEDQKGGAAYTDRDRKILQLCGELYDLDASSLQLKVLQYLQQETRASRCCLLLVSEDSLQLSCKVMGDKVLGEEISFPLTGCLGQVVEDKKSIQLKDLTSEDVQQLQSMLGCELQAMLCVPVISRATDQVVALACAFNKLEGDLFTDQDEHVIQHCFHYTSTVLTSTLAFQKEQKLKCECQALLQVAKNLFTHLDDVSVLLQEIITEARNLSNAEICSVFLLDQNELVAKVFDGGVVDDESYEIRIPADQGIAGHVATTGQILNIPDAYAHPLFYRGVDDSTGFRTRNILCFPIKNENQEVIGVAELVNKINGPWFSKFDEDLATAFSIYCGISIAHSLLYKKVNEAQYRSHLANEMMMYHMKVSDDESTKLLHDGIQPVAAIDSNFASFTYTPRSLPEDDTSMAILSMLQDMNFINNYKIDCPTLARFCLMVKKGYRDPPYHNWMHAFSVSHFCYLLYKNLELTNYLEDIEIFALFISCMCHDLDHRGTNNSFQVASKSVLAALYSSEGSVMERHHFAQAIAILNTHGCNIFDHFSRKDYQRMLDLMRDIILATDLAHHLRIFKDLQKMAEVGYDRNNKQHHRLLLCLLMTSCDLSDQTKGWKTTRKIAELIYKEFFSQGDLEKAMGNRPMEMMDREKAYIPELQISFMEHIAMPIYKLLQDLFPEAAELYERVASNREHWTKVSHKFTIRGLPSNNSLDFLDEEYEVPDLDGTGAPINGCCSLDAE
Experiment: PDE2 fluorescence polarization (IMAP FP) inhibition assay, rhesus PDE2A3
Type: biochemical, rhesus macaque
Method in brief: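 Enzyme source was the lysate supernatant of AD293 cells transiently expressing rhesus PDE2A3, diluted to give 20% conversion of 50 nM FAM-cAMP, with 1 µM cGMP as activator. Buffer was 10 mM Tris pH 7.2, 10 mM MgCl2, 1 mM DTT.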

[1] = Lab A, read-out: Rhesus PDE2 Ki (nM) Lab A
[2] = Lab B, read-out: Rhesus PDE2 Ki (nM) Lab B

Row | SMILES | Ki [1] [nM] | Ki [2] [nM]
1 | Cc1nc2c(c(CO)nn2C(C)c2ccc(C(F)(F)F)c(F)c2)c(=O)[nH]1 (centres unmarked) [Example 1, 1-(1-(3-Fluoro-4-(trifluoromethyl)phenyl)ethyl)-3-(hydroxymethyl)-6-methyl-1H-pyrazolo[3,4-d]pyrimidin-4(5H)-one] | 4.1 | 7.2
2 | Cc1ccc(C(C)n2nc(CO)c3c(=O)[nH]c(C)nc32)cc1 (centres unmarked) [Example 2, 3-(Hydroxymethyl)-6-methyl-1-(1-p-tolylethyl)-1H-pyrazolo[3,4-d]pyrimidin-4(5H)-one] | 26 | 30
3 | Cc1nc2c(c(CO)nn2C(C)c2ccc(C3CC3)cc2)c(=O)[nH]1 (centres unmarked) [Example 3, 1-(1-(4-Cyclopropylphenl)ethyl)-3-(hydroxymethyl)-6-methyl-1H-pyrazolo[3,4-d]pyrimidin-4(5H)-one] | 1.8 | 5.6
4 | Cc1nc2c(c(CO)nn2C(C)c2ccc(OC(F)(F)F)cc2)c(=O)[nH]1 (centres unmarked) [Example 4] | 3.8 | 7.1
5 | Cc1nc2c(c(CO)nn2C(c2ccc(C(F)(F)F)cc2)C(C)C)c(=O)[nH]1 (centres unmarked) [Example 5, 3-(Hydroxymethyl)-6-methyl-1-(2-methyl-1-(4-(trifluoromethyl)phenyl)propyl)-1H-pyrazolo[3,4-d]pyrimidin-4(5H)-one] | 0.62 | 1
6 | Cc1nc2c(c(CO)nn2C(c2ccc(C(F)(F)F)cc2)C(F)(F)F)c(=O)[nH]1 (centres unmarked) [Example 6, 3-(Hydroxymethyl)-6-methyl-1-(2,2,2-trifluoro-1-(4-(trifluoromethyl)phenyl)ethyl)-1H-pyrazolo[3,4-d]pyrimidin-4(5H)-one] | 1.6 | 3.5
7 | Cc1nc2c(c(CO)nn2C(C)c2ccc(C(F)(F)F)cc2)c(=O)[nH]1 (centres unmarked) [Example 7, 3-(Hydroxymethyl)-6-methyl-1-(1-(4-(trifluoromethyl)phenyl)ethyl)-1H-pyrazolo[3,4-d]pyrimidin-4(5H)-one] | 19 | 
8 | Cc1nc2c(c(CO)nn2Cc2ccc(C(F)(F)F)cc2)c(=O)[nH]1 [Example 8, 3-(Hydroxymethyl)-6-methyl-1-[4-(trifluoromethyl)benzyl]-1,5-dihydro-4H-pyrazolo[3,4-d]pyrimidin-4-one] | 192 | 
9 | Cc1nc2c(c(CO)nn2C(C)(C)c2ccc(C(F)(F)F)cc2)c(=O)[nH]1 [Example 9, 3-(Hydroxymethyl)-6-methyl-1-{1-methyl-1-[4-(trifluoromethyl)phenyl]ethyl}-1,5-dihydro-4H-pyrazolo[3,4-d]pyrimidin-4-one] | 54 | 56

Other lines, results leading:

Row | Ki [1] [nM] | Ki [2] [nM] | SMILES
10 | 19 | 41 | Cc1nc2c(c(CF)nn2C(C)c2ccc(OC(F)(F)F)c(F)c2)c(=O)[nH]1 (single isomer, unassigned) [Example 216, (R)- or (S)-1-(1-(3-Fluoro-4-(trifluoromethoxy)phenyl)ethyl)-3-(fluoromethyl)-6-methyl-1H-pyrazolo[3,4-d]pyrimidin-4(5H)-one]
11 | 0.39 | 0.53 | Cc1nc2c(c(CF)nn2C(C)c2ccc(OC(F)(F)F)c(F)c2)c(=O)[nH]1 (single isomer, unassigned) [Example 217, (S)- or (R)-1-(1-(3-Fluoro-4-(trifluoromethoxy)phenyl)ethyl)-3-(fluoromethyl)-6-methyl-1H-pyrazolo[3,4-d]pyrimidin-4(5H)-one]
12 | 0.17 | ~0.28 | COc1ccc(Cc2nc3c(c(CF)nn3C(C)c3ccc(C(F)(F)F)cc3)c(=O)[nH]2)cc1OC (single isomer, unassigned) [Example 222, (R)- or (S)-6-(3,4-Dimethoxybenzyl)-3-(fluoromethyl)-1-(1-(4-(trifluoromethyl)phenyl)ethyl)-1,5-dihydro-4H-pyrazolo[3,4-d]pyrimidin-4-one]
13 | 26 |  | COc1ccc(Cc2nc3c(c(CF)nn3C(C)c3ccc(C(F)(F)F)cc3)c(=O)[nH]2)cc1OC (single isomer, unassigned) [Example 223, (S)- or (R)-6-(3,4-Dimethoxybenzyl)-3-(fluoromethyl)-1-(1-(4-(trifluoromethyl)phenyl)ethyl)-1,5-dihydro-4H-pyrazolo[3,4-d]pyrimidin-4-one]
